Data from patent US8691865B2 (AbbVie Inc., priority 2008, dated 2014).
Like-named read-outs stand apart in the source and are kept apart here.

Target: human Cav2.2 (Homo sapiens, UniProt Q00975)
Test: Assessment of calcium channel activity using FLIPR (Ca2+ influx in IMR32 cells)
Assay type: cell-based
Outline: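 IC50 values derive from nonlinear sigmoidal fitting of percent inhibition, relative to inhibitor-free activity, of Ca2+ influx read by FLIPR. Cells were IMR32 human neuroblastoma, plated at 1−1.2×10^5 per well and grown 48 h at 37 °C.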

[1] = read-out: IC50 (μM) or percent inhibition (* indicates 3 minute incubation, otherwise 60 minute), IC50, 60 minute pre-incubation with compound, IMR32 cells, 80 mM KCl depolarization

human Cav2.2, sequence (Q00975 whole entry): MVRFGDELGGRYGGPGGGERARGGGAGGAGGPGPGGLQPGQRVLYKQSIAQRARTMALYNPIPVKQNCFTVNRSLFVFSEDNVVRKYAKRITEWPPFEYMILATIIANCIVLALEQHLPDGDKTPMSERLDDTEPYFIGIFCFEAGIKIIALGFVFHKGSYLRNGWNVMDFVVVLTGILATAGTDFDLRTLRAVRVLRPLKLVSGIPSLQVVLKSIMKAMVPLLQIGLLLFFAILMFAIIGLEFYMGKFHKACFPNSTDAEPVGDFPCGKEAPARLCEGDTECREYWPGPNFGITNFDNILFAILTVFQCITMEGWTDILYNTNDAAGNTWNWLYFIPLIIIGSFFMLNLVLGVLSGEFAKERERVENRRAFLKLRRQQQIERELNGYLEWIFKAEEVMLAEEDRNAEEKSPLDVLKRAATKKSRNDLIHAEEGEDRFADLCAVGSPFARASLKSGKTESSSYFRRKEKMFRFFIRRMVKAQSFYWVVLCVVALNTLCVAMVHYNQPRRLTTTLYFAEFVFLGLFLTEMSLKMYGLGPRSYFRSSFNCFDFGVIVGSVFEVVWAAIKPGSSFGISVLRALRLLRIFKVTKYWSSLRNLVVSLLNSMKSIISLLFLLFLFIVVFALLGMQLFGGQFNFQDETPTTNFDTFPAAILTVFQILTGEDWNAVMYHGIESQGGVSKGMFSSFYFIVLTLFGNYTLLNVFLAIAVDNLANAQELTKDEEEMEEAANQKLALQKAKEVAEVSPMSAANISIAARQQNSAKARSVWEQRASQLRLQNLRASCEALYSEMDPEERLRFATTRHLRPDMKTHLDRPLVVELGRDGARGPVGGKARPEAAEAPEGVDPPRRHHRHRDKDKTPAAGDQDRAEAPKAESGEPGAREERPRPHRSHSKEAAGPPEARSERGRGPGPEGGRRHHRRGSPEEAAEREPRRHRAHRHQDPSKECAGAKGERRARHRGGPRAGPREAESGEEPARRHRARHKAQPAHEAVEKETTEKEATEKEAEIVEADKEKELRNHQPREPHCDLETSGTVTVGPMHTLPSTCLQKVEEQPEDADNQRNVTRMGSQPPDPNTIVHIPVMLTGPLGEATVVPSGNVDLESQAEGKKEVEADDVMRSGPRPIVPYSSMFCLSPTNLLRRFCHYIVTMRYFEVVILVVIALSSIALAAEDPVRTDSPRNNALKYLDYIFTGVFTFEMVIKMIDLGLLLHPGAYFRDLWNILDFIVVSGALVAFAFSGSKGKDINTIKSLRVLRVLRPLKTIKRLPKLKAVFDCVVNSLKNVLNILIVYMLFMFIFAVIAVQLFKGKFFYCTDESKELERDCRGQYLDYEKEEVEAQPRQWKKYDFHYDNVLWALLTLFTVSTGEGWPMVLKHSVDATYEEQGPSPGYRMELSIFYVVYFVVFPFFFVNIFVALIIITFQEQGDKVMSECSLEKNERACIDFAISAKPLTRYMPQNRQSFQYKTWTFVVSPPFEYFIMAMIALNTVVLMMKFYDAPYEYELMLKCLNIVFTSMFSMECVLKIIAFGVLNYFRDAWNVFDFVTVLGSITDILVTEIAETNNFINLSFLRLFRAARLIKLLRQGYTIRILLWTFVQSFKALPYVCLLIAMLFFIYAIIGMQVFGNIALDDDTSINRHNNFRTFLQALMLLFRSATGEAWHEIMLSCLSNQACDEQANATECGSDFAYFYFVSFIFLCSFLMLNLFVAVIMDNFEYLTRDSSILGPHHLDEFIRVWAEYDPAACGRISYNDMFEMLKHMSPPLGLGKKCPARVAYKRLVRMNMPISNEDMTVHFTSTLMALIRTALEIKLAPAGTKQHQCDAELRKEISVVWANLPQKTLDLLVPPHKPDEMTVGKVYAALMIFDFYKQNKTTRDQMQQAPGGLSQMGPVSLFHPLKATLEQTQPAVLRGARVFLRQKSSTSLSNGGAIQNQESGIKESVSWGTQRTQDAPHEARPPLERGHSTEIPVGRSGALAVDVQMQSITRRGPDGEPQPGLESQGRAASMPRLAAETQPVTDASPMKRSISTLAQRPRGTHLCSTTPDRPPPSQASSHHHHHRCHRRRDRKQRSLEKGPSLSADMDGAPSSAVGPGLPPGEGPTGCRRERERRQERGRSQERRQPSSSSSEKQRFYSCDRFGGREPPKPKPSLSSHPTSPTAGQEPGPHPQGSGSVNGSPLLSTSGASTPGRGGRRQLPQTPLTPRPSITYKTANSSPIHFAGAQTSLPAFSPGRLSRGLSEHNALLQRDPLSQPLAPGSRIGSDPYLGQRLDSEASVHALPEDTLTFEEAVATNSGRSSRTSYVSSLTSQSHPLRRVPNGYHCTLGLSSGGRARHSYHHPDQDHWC
human Cav2.2, sequence (P54289 25-956 partner limits assumed): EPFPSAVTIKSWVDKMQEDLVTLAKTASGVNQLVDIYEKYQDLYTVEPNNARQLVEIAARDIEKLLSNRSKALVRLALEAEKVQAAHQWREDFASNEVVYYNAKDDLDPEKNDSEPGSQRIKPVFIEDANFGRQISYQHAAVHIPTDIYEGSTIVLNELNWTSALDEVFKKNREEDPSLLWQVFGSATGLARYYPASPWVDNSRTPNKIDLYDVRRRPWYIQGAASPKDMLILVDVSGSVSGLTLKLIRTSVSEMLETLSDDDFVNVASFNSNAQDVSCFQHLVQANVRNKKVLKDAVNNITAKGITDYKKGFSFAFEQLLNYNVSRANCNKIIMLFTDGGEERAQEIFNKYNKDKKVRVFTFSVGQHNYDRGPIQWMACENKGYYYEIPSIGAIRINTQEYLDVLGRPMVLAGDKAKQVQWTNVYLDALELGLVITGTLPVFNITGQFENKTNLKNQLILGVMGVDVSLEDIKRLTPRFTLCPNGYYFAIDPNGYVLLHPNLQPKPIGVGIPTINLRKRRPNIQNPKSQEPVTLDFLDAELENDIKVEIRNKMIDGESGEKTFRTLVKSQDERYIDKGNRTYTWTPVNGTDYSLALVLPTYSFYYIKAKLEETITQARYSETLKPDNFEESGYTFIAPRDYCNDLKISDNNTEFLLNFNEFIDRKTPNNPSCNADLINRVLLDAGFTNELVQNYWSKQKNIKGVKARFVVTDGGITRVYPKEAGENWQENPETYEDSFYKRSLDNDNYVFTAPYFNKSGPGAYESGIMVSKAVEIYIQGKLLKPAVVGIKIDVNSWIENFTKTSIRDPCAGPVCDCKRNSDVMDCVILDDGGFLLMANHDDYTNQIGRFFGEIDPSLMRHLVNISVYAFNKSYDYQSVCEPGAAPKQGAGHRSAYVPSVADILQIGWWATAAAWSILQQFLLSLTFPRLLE
human Cav2.2, sequence (P54289 957-1103 partner limits assumed): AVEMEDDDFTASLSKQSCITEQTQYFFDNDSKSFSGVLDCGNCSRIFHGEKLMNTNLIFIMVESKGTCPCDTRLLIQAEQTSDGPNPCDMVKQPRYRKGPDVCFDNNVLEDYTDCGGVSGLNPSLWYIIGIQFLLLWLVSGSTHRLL
human Cav2.2, sequence (P54284 whole entry partner): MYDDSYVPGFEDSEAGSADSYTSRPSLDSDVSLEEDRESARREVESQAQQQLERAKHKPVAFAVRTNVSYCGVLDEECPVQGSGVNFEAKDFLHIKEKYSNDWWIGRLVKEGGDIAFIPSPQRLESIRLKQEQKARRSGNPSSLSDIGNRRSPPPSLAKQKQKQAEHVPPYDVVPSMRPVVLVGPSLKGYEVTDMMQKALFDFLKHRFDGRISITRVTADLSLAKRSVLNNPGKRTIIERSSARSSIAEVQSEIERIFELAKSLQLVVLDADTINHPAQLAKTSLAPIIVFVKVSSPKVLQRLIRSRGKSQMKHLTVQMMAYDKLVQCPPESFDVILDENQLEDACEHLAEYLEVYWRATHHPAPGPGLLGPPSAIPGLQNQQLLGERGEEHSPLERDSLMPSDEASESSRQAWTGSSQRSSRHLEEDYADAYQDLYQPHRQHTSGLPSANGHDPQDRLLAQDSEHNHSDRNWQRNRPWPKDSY

Row | Compound | IC50 | IC50 [1]
1 | CN[C@@H](CC(C)C)C(=O)N[C@@H]1CC[C@H]2CN(c3ccc(C(F)(F)F)cn3)C[C@H]21 [Example 738, N^2-methyl-N-{(3aS,4R,6aR)-2-[5-(trifluoromethyl)pyridin-2-yl]octahydrocyclopenta[c]pyrrol-4-yl}-L-leucinamide] | 2.98 µM | 
2 | CNC(C)(C)C(=O)N[C@H]1CC[C@@H]2CN(c3ccc(C(F)(F)F)cc3)C[C@@H]21 [Example 754, N^2,2-dimethyl-N-{(3aR,4S,6aS)-2-[4-(trifluoromethyl)phenyl]octahydrocyclopenta[c]pyrrol-4-yl}alaninamide] | 6.78 µM | 
3 | Fc1ccc2[nH]c(CN[C@H]3CC[C@@H]4CN(c5ccc(C(F)(F)F)cn5)C[C@@H]43)cc2c1 [Example 614, (3aR,4S,6aS)-N-[(5-fluoro-1H-indol-2-yl)methyl]-2-[5-(trifluoromethyl)pyridin-2-yl]octahydrocyclopenta[c]pyrrol-4-amine] | 3.33 µM | 
4 | O=C(CCCCC(c1ccc(F)cc1)c1ccc(F)cc1)N[C@@H]1CC[C@H]2CN(Cc3cccc(C(F)(F)F)c3)C[C@H]21 (relative stereo) [Example 140, 6,6-bis(4-fluorophenyl)-N-{(3aS*,4R*,6aR*)-2-[3-(trifluoromethyl)benzyl]octahydrocyclopenta[c]pyrrol-4-yl}hexanamide] |  | 0.62 µM
5 | O=C(N[C@H]1CC[C@@H]2CN(c3cccc(Cl)c3)C[C@@H]21)[C@@H]1C[C@@H](F)CN1 [Example 643, (4R)-N-[(3aR,4S,6aS)-2-(3-chlorophenyl)octahydrocyclopenta[c]pyrrol-4-yl]-4-fluoro-L-prolinamide] | 3.57 µM | 
6 | O=C(N[C@H]1CC[C@H]2CN(Cc3ccccc3F)C[C@H]21)C(C1CCCCC1)C1CCCCC1 [Example 55, 2,2-dicyclohexyl-N-[(3aS,4S,6aR)-2-(2-fluorobenzyl)octahydrocyclopenta[c]pyrrol-4-yl]acetamide] | 1.12 µM | 
7 | CC(C)[C@@H](CC(=O)N[C@@H]1CC[C@H]2CN(S(=O)(=O)c3cccc(C(F)(F)F)c3)C[C@H]21)NC(=O)OC(C)(C)C [Example 267, tert-butyl(1R)-1-isopropyl-3-oxo-3-[((3aS,4R,6aR)-2-{[3-(trifluoromethyl)phenyl]sulfonyl}octahydrocyclopenta[c]pyrrol-4-yl)amino]propylcarbamate] |  | 14.1 µM
8 | CN[C@@H](CC(C)(C)C)C(=O)N[C@H]1CC[C@@H]2CN(Cc3ccccc3)C[C@@H]21 [Example 355, N^1-[(3aR,4S,6aS)-2-benzyloctahydrocyclopenta[c]pyrrol-4-yl]-N^2,4-dimethyl-L-leucinamide] | > 30 µM | 
9 | N-methyl-N-((3aR,4S,6aS)-2-{[3-(trifluoromethyl)phenyl]sulfonyl}octahydrocyclopenta[c]pyrrol-4-yl)-L-phenylalaninamide [Example 386] |  | 1.62 µM
10 | Fc1ccc2c(CN[C@H]3CC[C@@H]4CN(c5cccc(C(F)(F)F)n5)C[C@@H]43)c[nH]c2c1 [Example 686, (3aR,4S,6aS)-N-[(6-fluoro-1H-indol-3-yl)methyl]-2-[6-(trifluoromethyl)pyridin-2-yl]octahydrocyclopenta[c]pyrrol-4-amine] | 0.88 µM | 
11 | CCC[C@H](NC)C(=O)N[C@H]1CC[C@@H]2CN(Cc3cccc(C(F)(F)F)c3)C[C@@H]21 [Example 376, N^2-methyl-N^1-{(3aR,4S,6aS)-2-[3-(trifluoromethyl)benzyl]octahydrocyclopenta[c]pyrrol-4-yl}-L-norvalinamide] |  | 10.6 µM
12 | CC(C)C(C(=O)N[C@H]1CC[C@@H]2CN(CCCc3cc(F)cc(Cl)c3)C[C@@H]21)c1ccccc1 (stereo partly drawn) [Example 114, N-{(3aR,4S,6aS)-2-[3-(3-chloro-5-fluorophenyl)propyl]octahydrocyclopenta[c]pyrrol-4-yl}-3-methyl-2-phenylbutanamide] |  | 2.81 µM
13 | CC(C)(C)C[C@H](N)C(=O)N[C@H]1CC[C@@H]2CN(Cc3ccccc3)C[C@@H]21 [Example 361, N^1-[(3aR,4S,6aS)-2-benzyloctahydrocyclopenta[c]pyrrol-4-yl]-4-methyl-L-leucinamide] |  | 24.7 µM
14 | FC(F)(F)c1cccc(N2C[C@H]3CC[C@H](NCc4c[nH]nc4-c4cccs4)[C@H]3C2)n1 [Example 669, (3aR,4S,6aS)-N-{[3-(2-thienyl)-1H-pyrazol-4-yl]methyl}-2-[6-(trifluoromethyl)pyridin-2-yl]octahydrocyclopenta[c]pyrrol-4-amine] | 0.8 µM | 
15 | O=C(N[C@H]1CC[C@@H]2CN(S(=O)(=O)c3cccc(C(F)(F)F)c3)C[C@@H]21)[C@@H]1Cc2ccccc2CN1 [Example 391, (3S)-N-((3aR,4S,6aS)-2-{[3-(trifluoromethyl)phenyl]sulfonyl}octahydrocyclopenta[c]pyrrol-4-yl)-1,2,3,4-tetrahydroisoquinoline-3-carboxamide] |  | 1.45 µM
16 | CCC[C@H](NC)C(=O)N[C@H]1CC[C@@H]2CN(S(=O)(=O)c3ccc(OC)cc3)C[C@@H]21 [Example 537, N^1-{(3aR,4S,6aS)-2-[(4-methoxyphenyl)sulfonyl]octahydrocyclopenta[c]pyrrol-4-yl}-N^2-methyl-L-norvalinamide] |  | 11.3 µM

Row | Compound | IC50 | IC50 [1]
17 | CC(C)C(C(=O)N[C@H]1CC[C@@H]2CN(Cc3cccc(F)c3)C[C@@H]21)c1ccccc1 (stereo partly drawn) [Example 87, N-[(3aR,4S,6aS)-2-(3-fluorobenzyl)octahydrocyclopenta[c]pyrrol-4-yl]-3-methyl-2-phenylbutanamide] |  | 3.14 µM
18 | CN[C@@H](CC(C)C)C(=O)N[C@H]1CC[C@@H]2CN(c3ccc(F)cc3)C[C@@H]21 [Example 620, N-[(3aR,4S,6aS)-2-(4-fluorophenyl)octahydrocyclopenta[c]pyrrol-4-yl]-N^2-methyl-L-leucinamide] | 5.31 µM | 
19 | Fc1ccc2[nH]c(CN[C@H]3CC[C@@H]4CN(c5ccc(C(F)(F)F)cc5)C[C@@H]43)cc2c1 [Example 615, (3aR,4S,6aS)-N-[(5-fluoro-1H-indol-2-yl)methyl]-2-[4-(trifluoromethyl)phenyl]octahydrocyclopenta[c]pyrrol-4-amine] | 13.7 µM | 
20 | CC(C)C(C(=O)N[C@H]1CC[C@H]2CN(Cc3ccccc3)C[C@H]21)c1ccccc1 (stereo partly drawn) [Example 14, N-[(3aS,4S,6aR)-2-benzyloctahydrocyclopenta[c]pyrrol-4-yl]-3-methyl-2-phenylbutanamide] |  | 3.79 µM
21 | O=C(N[C@H]1CC[C@@H]2CN(c3ccc(C(F)(F)F)cn3)C[C@@H]21)[C@@H]1C[C@@H]2CCCC[C@@H]2N1 [Example 603, (2S,3aS,7aS)-N-{(3aR,4S,6aS)-2-[5-(trifluoromethyl)pyridin-2-yl]octahydrocyclopenta[c]pyrrol-4-yl}octahydro-1H-indole-2-carboxamide] | 2.22 µM | 
22 | CN[C@@H](C)C(=O)N[C@H]1CC[C@@H]2CN(c3ccc(C(F)(F)F)cc3)C[C@@H]21 [Example 753, N^2-methyl-N-{(3aR,4S,6aS)-2-[4-(trifluoromethyl)phenyl]octahydrocyclopenta[c]pyrrol-4-yl}-L-alaninamide] | > 9.5 µM | 
23 | CCC[C@H](NC(C)C)C(=O)N[C@@H]1CC[C@H]2CN(Cc3ccccc3)C[C@H]21 [Example 495, N^1-[(3aS,4R,6aR)-2-benzyloctahydrocyclopenta[c]pyrrol-4-yl]-N^2-isopropyl-L-norvalinamide] | > 30 µM | 
24 | O=C(N[C@H]1CC[C@H]2CN(Cc3ccccc3)C[C@H]21)C(C1CCCCC1)C1CCCCC1 (relative stereo) [Example 11, N-[(3aS*,4S*,6aR*)-2-benzyloctahydrocyclopenta[c]pyrrol-4-yl]-2,2-dicyclohexylacetamide] | 4.67 µM | 
25 | CN[C@@H](CC(C)C)C(=O)N[C@H]1CC[C@@H]2CN(c3cccc(C)c3)C[C@@H]21 [Example 636, N^2-methyl-N-[(3aR,4S,6aS)-2-(3-methylphenyl)octahydrocyclopenta[c]pyrrol-4-yl]-L-leucinamide] | 3.73 µM | 
26 | CC(C)(C)[C@H](N)C(=O)N[C@@H]1CC[C@H]2CN(Cc3ccccc3)C[C@H]21 [Example 356, N^1-[(3aS,4R,6aR)-2-benzyloctahydrocyclopenta[c]pyrrol-4-yl]-3-methyl-L-valinamide] | > 30 µM | 
27 | O=C(N[C@H]1CC[C@@H]2CN(c3cc(C(F)(F)F)ccn3)C[C@@H]21)[C@@H]1C[C@@H](F)CN1 [Example 637, (4R)-4-fluoro-N-{(3aR,4S,6aS)-2-[4-(trifluoromethyl)pyridin-2-yl]octahydrocyclopenta[c]pyrrol-4-yl}-L-prolinamide] | 20.5 µM | 
28 | Cc1ccc(-c2n[nH]cc2CN[C@H]2CC[C@@H]3CN(c4cccc(C(F)(F)F)n4)C[C@@H]32)cc1 [Example 673, (3aR,4S,6aS)-N-{[3-(4-methylphenyl)-1H-pyrazol-4-yl]methyl}-2-[6-(trifluoromethyl)pyridin-2-yl]octahydrocyclopenta[c]pyrrol-4-amine] | 0.74 µM | 
29 | CC(C)C(C(=O)N[C@@H]1CC[C@H]2CN(Cc3ccccc3)C[C@H]21)C(C)C [Example 235, N-[(3aS,4R,6aR)-2-benzyloctahydrocyclopenta[c]pyrrol-4-yl]-2-isopropyl-3-methylbutanamide] | 11 µM | 
30 | Fc1ccc2[nH]c(CN[C@H]3CC[C@@H]4CN(c5cccc(C(F)(F)F)c5)C[C@@H]43)cc2c1 [Example 616, (3aR,4S,6aS)-N-[(5-fluoro-1H-indol-2-yl)methyl]-2-[3-(trifluoromethyl)phenyl]octahydrocyclopenta[c]pyrrol-4-amine] | 4.22 µM | 
31 | O=C(N[C@H]1CC[C@@H]2CN(c3cccc(C(F)(F)F)n3)C[C@@H]21)c1ccccc1F [Example 563, 2-fluoro-N-{(3aR,4S,6aS)-2-[6-(trifluoromethyl)pyridin-2-yl]octahydrocyclopenta[c]pyrrol-4-yl}benzamide] | 1.32 µM | 
32 | CC(C)C[C@H](NC(=O)NC1CCCC1)C(=O)N[C@@H]1CC[C@H]2CN(Cc3cccc(C(F)(F)F)c3)C[C@H]21 [Example 181, N^2-[(cyclopentylamino)carbonyl]-N^1-{(3aS,4R,6aR)-2-[3-(trifluoromethyl)benzyl]octahydrocyclopenta[c]pyrrol-4-yl}-L-leucinamide] |  | 0.94 µM
